# Assay results as given in US11467158B2, “BRCA1 mutations as predictive markers for topoisomerase inhibitions” (BOSTON MEDICAL CENTER CORPORATION, priority 2012, dated 2022).
# “Also recorded” adds a separate entry of the source. Non-standard residues stand in square brackets, D forms with d. No end group written: not given here. pS = N[C@@H](COP(=O)(O)O)C(=O)O
# How the values were obtained:
# topo I [1] = assay: topo I ubiquitination in cells (anti-topoI immunoprecipitation, anti-ubiquitin immunoblot); assay type: cell-based
# Method: (§1) Phosphorylated GST-topo I was incubated with purified E1, UbcH5c (E2), and BRCA1/BARD1 (E3) (lane2). Phosphorylated topo I was also incubated with E1 and UbcH5c (E2) only as control (lane 1). Reactions were carried out in ubiquitination buffer at 37° C. for 30 min. The reaction products were analyzed by immunoblot analysis with anti-ubiquitin. […] Immunoprecipitates were analyzed by immunoblot analysis with anti-ubiquitin. […] Control and treated cells were harvested and lysed. Cell lysates were analyzed by immunoblot analysis with anti-topo I (upper panel) and anti-β-actin (lower panel).
# (§2) Cells were harvested after designated time and lysed. The cell lysates were analyzed by immunoblot analysis with anti-topo I (upper panel) and anti-β-actin for equal protein loading (lower panel). An infrared secondary antibody was used and a LICOR system was used to visualize the florescence. […] Immunoprecipitates were analyzed by immunoblot analysis with anti-Pan ubiquitin. […] The cell number was counted after 12 hours using a Celigo system. The cells were treated with 10 and 25 nM SN-38 for 72 hours. The cells were counted again using the Celigo system and growth inhibition was determined using a formula described in the materials and methods section.
# (§3) Control and treated cells were harvested and lysed. Cell lysates were analyzed by immunoblot analysis with anti-topo I (upper panel) and anti-β-actin (lower panel). […] Immunoprecipitates were analyzed by immunoblot analysis with anti-ubiquitin.
# (§4) To further validate the findings in cells the inventors used BRCA1 E3 ligase deficient HCC1937 cells. The cells are sensitive to DNA-damaging agents and have impaired BRCA1 E3 ligase function. The inventors have used HCC1937 cells and stably expressed BRCA1 (HCC1937-BRCA1) to restore E3 ligase function. Both, HCC1937 and HCC1937-BRCA1 cells were treated with CPT for 60 minutes and drug free for 30 minutes in the presence of MG132. Control and CPT treated cells were lysed and subjected to immunoprecipitation with anti-topoI. The immunoprecipitates were analyzed by immunoblot analysis with anti-ubiquitin. […] Topo I is degraded in the response to CPT by ubiquitin proteosomal pathways, and the rate of degradation at least in part determines anti neoplastic activity of the drug. To determine the correlation between topo I degradation and CPT efficacy in HCC1937 and HCC1937-BRCA cells, were treated with […] and topo I degradation (FIG. 2C) and cell growth inhibition assays were performed (FIG. 2D).
# (§5) To understand the topo I ubiquitination and CPT response, based on the inventors previous early screen, the inventors selected four triple negative breast cancer cell lines with differential rate of UPP mediated topo I degradation. […] To determine the level of CPT induced ubiquitination, control and treated cells were lysed and cell lysates were subjected to immunoprecipitation with anti-topoI. The immunoprecipitates were analyzed by immunoblot analysis with anti-ubiquitin. […] To understand the possible correlation between ubiquitination dependent topo I degradation and CPT response, cells were treated with different concentration of SN-38 and analyzed for percent growth inhibition. […] The highest percent of growth inhibition was detected in BT20 (FIG. 3C). Taken together, rate of topo I degradation by UPP determines the drug sensitivity in triple negative breast cancer cells.
# topo I [2] = assay: topo I degradation in cells (immunoblot with anti-topo I); assay type: cell-based
# Method: as §1, §2, §3, §4, §5
# [3] = test system: biosynthesis of nucleic acids; conditions: cited from earlier work
# Walker 256 tumor = conditions: experimentally transplanted Walker 256 tumor in rats; cited from earlier work
# HCC1937 cells = assay: percent cell growth inhibition after 72 hours (Celigo); assay type: cell-based
# Method: as §1, §3, §4
# HCC1937-BRCA1 cells = assay: as above; assay type: cell-based
# Method: as §1, §3, §4
# leukemia L-1210 = conditions: experimentally transplanted leukemia L-1210 in mice; cited from earlier work
# MDAMB231 cells = assay: TNBC cell growth inhibition, 72 hours (Celigo); assay type: cell-based
# Method: as §2, with “The cells were treated with 10 and 25 nM SN-38 for 72 hours.” left out
# as §5, with “Taken together, rate of topo I degradation by UPP determines the drug sensitivity in triple negative breast cancer cells.” left out
# SUM52 cells = assay: TNBC cell growth inhibition, 72 hours (Celigo); assay type: cell-based; conditions: 10 and 25 nM
# Method: as §2, §5
# BT549 cells = assay: TNBC cell growth inhibition, 72 hours (Celigo); assay type: cell-based
# Method: as §2, §5
# BT20 cells = assay: TNBC cell growth inhibition, 72 hours (Celigo); assay type: cell-based
# Method: as §2, §5
# HIV-1 = conditions: acute and chronic infections, in vitro; cited from earlier work
# BRCA1-BRCT domain = molecular target: T1, BRCA1-BRCT domain (Homo sapiens, UniProt P38398); assay: fluorescence polarization of Topo I phosphopeptide with GST-BRCT; assay type: binding; conditions: peptide labeled with Alexa Fluor 532, final dilution 1:1000 or 1:500, varying GST-BRCT concentrations
# T1 construct: made in house; host or cells: E. coli Rosetta (DE3) pLysS (Novagen)
# Method: Phosphopeptide labeled with Alexa Fluor 532 was incubated at a final dilution of either 1:1000 or 1:500 with varying concentrations of GST-BRCT or buffer alone. Polarization of the light emitted by the labeled peptide was detected on a Tecan Infinite M1000 pro and is plotted as a function of protein concentration.
# An exemplary assay to identify a mutation in the BRCT domain which decreases the binding affinity of the BRCT domain for the phospho-ser10-topo I polypeptide was performed as follows (see FIG. 8): Topo I phosphopeptide NDpSQIEADFRLNDC (SEQ ID NO: 4) was conjugated to Alexa Fluor 532 (Invitrogen) via maleimide reaction with the C-terminal cysteine, as per manufacturer's protocol. Labeled peptide was separated from the reaction mixture by RP-HPLC using C-18 media and eluted with 30% acetonitrile. The partially purified peptide was lyophilized and resuspended in TBS with 1 mM DTT. GST-BRCT was expressed in Rosetta (DE3) pLysS (Novagen) and purified by standard methods. The purified protein was eluted from the GS beads and dialyzed against TBS containing 1 mM DTT and 5% glycerol prior to storage at −80°. […] 20 μl from each dilution was then transferred to each of 4 wells in a 384-well black plate, and FP was read on a Tecan Infinite M1000 pro and plotted as mP as a function of protein concentration.
# T1 sequence (P38398 1650-1863): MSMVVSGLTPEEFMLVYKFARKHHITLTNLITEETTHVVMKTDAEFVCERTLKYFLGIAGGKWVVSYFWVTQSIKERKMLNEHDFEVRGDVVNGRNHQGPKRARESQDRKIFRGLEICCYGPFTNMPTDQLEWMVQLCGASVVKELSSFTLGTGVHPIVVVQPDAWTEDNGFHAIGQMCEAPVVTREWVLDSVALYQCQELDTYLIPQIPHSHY
compound,measurement,setting,value
"CC[C@@]1(O)C(=O)OCc2c1cc1n(c2=O)Cc2cc3ccccc3nc2-1 [CPT, camptothecin]",topo I ubiquitination,topo I [1]; BT20 cells,no ubiquitination
same,topo I ubiquitination,topo I [1]; BT549 cells,no ubiquitination
same,topo I ubiquitination,"topo I [1]; HCC1937 cells (BRCA1 E3 ligase deficient), treated 60 minutes, drug free 30 minutes, MG132",No ubiquitination; also recorded: fail to ubiquitinate topo I; also recorded: fails to ubiquitinate and degrade topo I
same,topo I ubiquitination,topo I [1]; MDAMB231 cells,ubiquitinated
same,topo I ubiquitination,topo I [1]; SUM52 cells,ubiquitinated
same,topo I degradation,"topo I [2]; BT20 cells, in 2 hours",not appreciably degraded
same,topo I degradation,"topo I [2]; BT549 cells, in 2 hours",not appreciably degraded
same,topo I degradation,topo I [2]; HCC1937-BRCA1 cells,degrades topo I
same,topo I degradation,topo I [2]; HCC1937 cells,fails to ubiquitinate and degrade topo I
same,time in which topo I was degraded,topo I [2]; MDAMB231 cells,≤ 2 h
same,time in which topo I was degraded,topo I [2]; SUM52 cells,≤ 2 h
same,inhibitory activity toward the biosynthesis of nucleic acids,[3],strong inhibitory activity
same,anti-tumor activity,Walker 256 tumor,potent anti-tumor activity
same,cell growth inhibition (sensitivity to the drug),HCC1937 cells,highly sensitive
same,cell growth inhibition (sensitivity to the drug),HCC1937-BRCA1 cells,resistant
same,anti-tumor activity,leukemia L-1210,potent anti-tumor activity
CCc1c2c(nc3ccc(O)cc13)-c1cc3c(c(=O)n1C2)COC(=O)[C@]3(O)CC [SN-38],topo I ubiquitination,"topo I [1]; HCC1937-BRCA1 cells (wild type BRCA1 restored), treated 60 minutes, drug free 30 minutes, MG132",pronounced topo I ubiquitination
same,cell growth under drug,MDAMB231 cells; 50 nM,cells were growing
same,sensitivity to the drug (growth inhibition),MDAMB231 cells; 72 hours,remained resistant
same,topo I degradation,topo I [2]; HCC1937-BRCA1 cells,degrade topo I
same,topo I degradation,topo I [2]; HCC1937 cells,do not degrade topo I
same,cell growth inhibition (sensitivity to the drug),HCC1937 cells,sensitive
same,cell growth inhibition (sensitivity to the drug),HCC1937-BRCA1 cells,sensitive
same,percent growth inhibition (compared among four TNBC cell lines),SUM52 cells,least
same,sensitivity to the drug (growth inhibition),BT549 cells,very sensitive
same,percent growth inhibition (compared among four TNBC cell lines),BT20 cells; BT20 cells,highest
same,sensitivity to the drug (growth inhibition),BT20 cells; BT20 cells (printed BT2020),very sensitive
CC[C@@]1(O)C(=O)OCc2c1cc1n(c2=O)Cc2cc3c(CN(C)C)c(O)ccc3nc2-1 [Topotecan],inhibition of HIV-1 infection,HIV-1,inhibit both acute and chronic HIV-1 infections
"NDpSQIEADFRLNDC (SEQ ID NO: 4) (ND[pS]QIEADFRLNDC; listed as Homo sapiens) [Topo I phosphopeptide, topo I phosphopeptide with phosphorylated S10]",binding to GST-BRCT (fluorescence polarization),BRCA1-BRCT domain,direct interaction
same,binding to GST-BRCT (fluorescence polarization),BRCA1-BRCT domain; listed as topo I phosphopeptide,binds directly
